Laboratory results from US20130072430A1, “METHODS FOR TREATMENT OR PROPHYLAXIS OF KIDNEY OR LIVER DYSFUNCTION” (NPS PHARMACEUTICALS, INC., priority 2010, published 2013).

Test system: Human patients with short bowel syndrome
Test: Example 1: liver diagnostic biomarkers (total bilirubin, ALT, AST, ALP) in short bowel syndrome patients, every four weeks for 24 weeks
Assay type: in vivo
Procedure: Human patients with short bowel syndrome were divided into three groups: a control group (16 total individuals) to receive placebo, an experimental group (35 total individuals) to receive teduglutide at 0.05 mg/kg/day throughout the study, and an experimental group (32 total individuals) to receive teduglutide at 0.1 mg/kg/day throughout the study. Patients were treated by subcutaneous injection of placebo or the appropriate dose of teduglutide. As individuals with short bowel syndrome are likely to experience associated liver and kidney disease, known biomarkers of liver and kidney function were monitored every four weeks, for 24 weeks. The liver biomarkers tested included total bilirubin, ALT and AST and ALP. The kidney biomarkers tested included urea nitrogen, creatinine and GFR. Before administration of placebo or teduglutide, diagnostic biomarker levels were tested to establish a baseline for each individual.
To visualize the effect of GLP-2 on the levels of the diagnostic biomarkers, the average change from baseline was calculated for the placebo and teduglutide treated groups for each visit after a baseline was established. The average change from baseline of each group is depicted in FIGS. […]. The numerical figures for each diaanostic biomarker at each time point are depicted in Table 1.
The efficacy of teduglutide in treating liver dysfunction was further tested by sorting the data into two groups: individuals with abnormal baseline values of liver diagnostic biomarkers; and individuals with normal baseline values of liver diagnostic biomarkers. The mean diagnostic biomarker change from baseline for these two groups is shown for ALT (FIGS. 5 and 6) and AST (FIGS. 7 and 8). […] These changes were significant when compared to baseline levels for the group, and when compared to placebo (see FIGS. 5 and 7).
The raw data for this sorting is reproduced in Table 2 below.

[1] = Week 4, range −5%<= and <=5%, teduglutide 0.1 mg/kg/day
[2] = Week 8, range <−5%, teduglutide 0.05 mg/kg/day
[3] = Week 8, range <−5%, teduglutide 0.1 mg/kg/day
[4] = Week 8, range >5%, teduglutide 0.05 mg/kg/day
[5] = Week 8, range >5%, teduglutide 0.1 mg/kg/day
[6] = Week 8, range −5%<= and <=5%, teduglutide 0.05 mg/kg/day
[7] = Week 8, range −5%<= and <=5%, teduglutide 0.1 mg/kg/day
[8] = Week 12, range <−5%, teduglutide 0.05 mg/kg/day
[9] = Week 12, range <−5%, teduglutide 0.1 mg/kg/day
[10] = Week 12, range >5%, teduglutide 0.05 mg/kg/day
[11] = Week 12, range >5%, teduglutide 0.1 mg/kg/day

## CC[C@H](C)[C@H](NC(=O)[C@H](Cc1ccccc1)NC(=O)[C@H](CC(=O)O)NC(=O)[C@H](CCCNC(=N)N)NC(=O)[C@H](C)NC(=O)[C@H](C)NC(=O)[C@H](CC(C)C)NC(=O)[C@H](CC(N)=O)NC(=O)[C@H](CC(=O)O)NC(=O)[C@H](CC(C)C)NC(=O)[C@@H](NC(=O)[C@@H](NC(=O)[C@H](CC(N)=O)NC(=O)[C@H](CCSC)NC(=O)[C@H](CCC(=O)O)NC(=O)[C@H](CC(=O)O)NC(=O)[C@H](CO)NC(=O)[C@H](Cc1ccccc1)NC(=O)[C@H](CO)NC(=O)CNC(=O)[C@H](CC(=O)O)NC(=O)CNC(=O)[C@@H](N)Cc1c[nH]cn1)[C@@H](C)O)[C@@H](C)CC)C(=O)N[C@@H](CC(N)=O)C(=O)N[C@@H](Cc1c[nH]c2ccccc12)C(=O)N[C@@H](CC(C)C)C(=O)N[C@H](C(=O)N[C@@H](CCC(N)=O)C(=O)N[C@H](C(=O)N[C@@H](CCCCN)C(=O)N[C@H](C(=O)N[C@H](C(=O)N[C@@H](CC(=O)O)C(=O)O)[C@@H](C)O)[C@@H](C)CC)[C@@H](C)O)[C@@H](C)CC [teduglutide]
[1]
  AST (SGOT) change from baseline: patients in range, n(%): 4(12.5%)
  TOTAL BILIRUBIN change from baseline: patients in range, n(%): 3(9.4%)
[2]
  ALKALINE PHOSPHATASE change from baseline: patients in range, n(%): 21(60.0%)
  ALT (SGPT) change from baseline: patients in range, n(%): 16(45.7%)
  AST (SGOT) change from baseline: patients in range, n(%): 16(45.7%)
  TOTAL BILIRUBIN change from baseline: patients in range, n(%): 13(37.1%)
[3]
  ALKALINE PHOSPHATASE change from baseline: patients in range, n(%): 24(75.0%)
  ALT (SGPT) change from baseline: patients in range, n(%): 20(62.5%)
  AST (SGOT) change from baseline: patients in range, n(%): 21(65.6%)
  TOTAL BILIRUBIN change from baseline: patients in range, n(%): 16(50.0%)
[4]
  ALKALINE PHOSPHATASE change from baseline: patients in range, n(%): 6(17.1%)
  ALT (SGPT) change from baseline: patients in range, n(%): 9(25.7%)
  AST (SGOT) change from baseline: patients in range, n(%): 9(25.7%)
  TOTAL BILIRUBIN change from baseline: patients in range, n(%): 8(22.9%)
[5]
  ALKALINE PHOSPHATASE change from baseline: patients in range, n(%): 5(15.6%)
  ALT (SGPT) change from baseline: patients in range, n(%): 8(25.0%)
  AST (SGOT) change from baseline: patients in range, n(%): 5(15.6%)
  TOTAL BILIRUBIN change from baseline: patients in range, n(%): 7(21.9%)
[6]
  ALKALINE PHOSPHATASE change from baseline: patients in range, n(%): 2(5.7%)
  ALT (SGPT) change from baseline: patients in range, n(%): 4(11.4%)
  AST (SGOT) change from baseline: patients in range, n(%): 4(11.4%)
  TOTAL BILIRUBIN change from baseline: patients in range, n(%): 4(11.4%)
[7]
  ALKALINE PHOSPHATASE change from baseline: patients in range, n(%): 2(6.3%)
  ALT (SGPT) change from baseline: patients in range, n(%): 2(6.3%)
  AST (SGOT) change from baseline: patients in range, n(%): 4(12.5%)
  TOTAL BILIRUBIN change from baseline: patients in range, n(%): 6(18.8%)
[8]
  ALKALINE PHOSPHATASE change from baseline: patients in range, n(%): 23(65.7%)
  ALT (SGPT) change from baseline: patients in range, n(%): 19(54.3%)
  AST (SGOT) change from baseline: patients in range, n(%): 19(54.3%)
  TOTAL BILIRUBIN change from baseline: patients in range, n(%): 14(40.0%)
[9]
  ALKALINE PHOSPHATASE change from baseline: patients in range, n(%): 19(59.4%)
  ALT (SGPT) change from baseline: patients in range, n(%): 20(62.5%)
  AST (SGOT) change from baseline: patients in range, n(%): 15(46.9%)
  TOTAL BILIRUBIN change from baseline: patients in range, n(%): 14(43.8%)
[10]
  ALKALINE PHOSPHATASE change from baseline: patients in range, n(%): 2(5.7%)
  ALT (SGPT) change from baseline: patients in range, n(%): 4(11.4%)
  AST (SGOT) change from baseline: patients in range, n(%): 5(14.3%)
  TOTAL BILIRUBIN change from baseline: patients in range, n(%): 6(17.1%)
[11]
  ALKALINE PHOSPHATASE change from baseline: patients in range, n(%): 10(31.3%)
  ALT (SGPT) change from baseline: patients in range, n(%): 7(21.9%)
  AST (SGOT) change from baseline: patients in range, n(%): 10(31.3%)
  TOTAL BILIRUBIN change from baseline: patients in range, n(%): 9(28.1%)
Week 12, range −5%<= and <=5%, teduglutide 0.05 mg/kg/day
  ALKALINE PHOSPHATASE change from baseline: patients in range, n(%): 2(5.7%)
